This note sets out measurements from ChEMBL document CHEMBL1268944, “The antiplasmodial activity of norcantharidin analogs” (Bioorg Med Chem Lett, 2010).

Test [1] concerns Plasmodium falciparum. The experiment in a line: Antiplasmodial activity against chloroquine-sensitive Plasmodium falciparum D6 assessed as inhibition of parasite LDH activity after 72 hrs by malstat reagent method. Particulars: D6, 72 h. It is filed as functional, organism-based.
In test [2] the test system is Plasmodium falciparum. The experiment in a line: Antiplasmodial activity against chloroquine-resistant Plasmodium falciparum W2 assessed as inhibition of parasite LDH activity […] after 72 hrs by malstat reagent method. In kind it is functional, organism-based. The following applies: W2, 72 h.
Test [3] can be described thus: Inhibition of human PP2A.
Test [4] is described as follows: Inhibition of human PP1.
The species entered for test [5] is Homo sapiens. Put plainly: Inhibition of human PP2A at 100 uM.
Test [6] is filed under the species Homo sapiens. Put plainly: Inhibition of human PP1 at 100 uM.

The term IC50 denotes the concentration that inhibits the measured activity by half. With `CCCCCCCCN1C(=O)C2C(C1=O)[C@H]1CC[C@@H]2O1` (some centres not stated), the IC50 was 225 µM in test [1] and 250 µM in test [2].

`O=C(O)C1C(C(=O)NCc2ccc(F)c(F)c2)[C@H]2CC[C@@H]1O2` (some centres not stated): the IC50 in test [1] is 473 µM; in test [2], above 500 µM; in test [3] it was 26 µM; in test [4] it was 26 µM.

`C#Cc1cccc(NC(=O)C2C(C(=O)O)[C@@H]3CC[C@H]2O3)c1` (some centres not stated): the IC50 in test [1] amounted to 193 µM; in test [2], 194 µM; in test [3], 16 µM; in test [4] it was 20 µM.

As for `O=C(O)CCCNC(=O)C1C(C(=O)O)[C@@H]2CC[C@H]1O2` (some centres not stated), the IC50 in test [1] is above 500 µM; in test [2], above 500 µM; in test [3], 3.3 µM; in test [4], 15 µM.

Take `CCCCCCCCCCN1C(=O)C2C(C1=O)[C@H]1CC[C@@H]2O1` (some centres not stated): the IC50 in test [1] came out at 375 µM; in test [2], 141 µM.

`COc1ccc(CNC(=O)C2C(C(=O)O)[C@@H]3CC[C@H]2O3)cc1` (some centres not stated): the IC50 in test [1] was above 500 µM; in test [2], above 500 µM; in test [3], 13 µM; in test [4], 35 µM.

Take `CCC(C)N1C(=O)C2C(C1=O)[C@H]1CC[C@@H]2O1` (some centres not stated): the IC50 in test [1] was determined as 225 µM; in test [2], 125 µM.

In the case of `CCCCCOc1ccc(NC(=O)C2C(C(=O)O)[C@@H]3CC[C@H]2O3)cc1` (some centres not stated), the IC50 in test [1] was 110 µM; in test [2], 333 µM; in test [3], 15 µM; in test [4] it was 11 µM.

On to `O=C(O)C1C(C(=O)Nc2cccc(Cl)c2)[C@H]2CC[C@@H]1O2` (some centres not stated), for which the IC50 in test [1] worked out at 250 µM; in test [2], 185 µM; in test [3], 14 µM; in test [4] it was 31 µM.

As for `O=C(O)C1C(C(=O)Nc2cccc(I)c2)[C@H]2CC[C@@H]1O2` (some centres not stated), the IC50 in test [1] is 217 µM; in test [2] it was 283 µM; in test [3] it was 18 µM; in test [4] it was 44 µM.

Turning to `O=C(O)C1C(C(=O)N2CCSCC2)[C@H]2CC[C@@H]1O2` (some centres not stated), the IC50 in test [1] is 250 µM; in test [2], 204 µM; in test [3] it was 5.1 µM; in test [4], 3.2 µM.

In the case of `CCCCCCOc1ccc(NC(=O)C2C(C(=O)O)[C@@H]3CC[C@H]2O3)cc1` (some centres not stated), the IC50 was found to be 130 µM in test [1], 70 µM in test [2], 20 µM in test [3] and 60 µM in test [4].

Take `O=C1C2C(C(=O)N1C1CCCCC1)[C@H]1CC[C@@H]2O1` (some centres not stated): the IC50 in test [1] was 140 µM; in test [2] it was 55 µM.

The inhibition is the percentage by which the read-out fell short of the control. High values mean strong suppression, low ones little suppression. As to `CC(C)(C)c1ccccc1NC(=O)C1C(C(=O)O)[C@@H]2CC[C@H]1O2` (some centres not stated), the 50% inhibitory concentration (IC50) in test [1] and in test [2] was above 500 µM throughout. The inhibition in test [5] came out at 16%; in test [6] it was 9%.

As to `Nc1ccccc1CN1C(=O)C2C(C1=O)[C@H]1CC[C@@H]2O1` (some centres not stated), the IC50 in test [1] and in test [2] was above 500 µM throughout.

Take `Cc1cccc(NC(=O)C2C(C(=O)O)[C@@H]3CC[C@H]2O3)c1C` (some centres not stated): the IC50 in test [1] is 260 µM; in test [2] it was 220 µM. Also, the inhibition in test [5] was determined as 62%; in test [6], 84%.

As to `O=C(O)C1C(C(=O)Nc2ccc(CO)cc2)[C@H]2CC[C@@H]1O2` (some centres not stated), the IC50 in test [1] was found to be 160 µM; in test [2], 163 µM; in test [3], 7.2 µM; in test [4] it was 15 µM.

For `O=C(O)C1C(C(=O)Nc2ccc([N+](=O)[O-])cc2)[C@H]2CC[C@@H]1O2` (some centres not stated), the IC50 in test [1] was above 500 µM; in test [2], 393 µM; in test [3], 23 µM; in test [4] it was 74 µM.

Consider `O=C(O)C1C(C(=O)Nc2ccc(I)cc2)[C@H]2CC[C@@H]1O2` (some centres not stated), for which the IC50 amounted to 230 µM in test [1], 248 µM in test [2], 14 µM in test [3] and 33 µM in test [4].

Take `CCCNC(=O)C1C(C(=O)O)[C@@H]2CC[C@H]1O2` (some centres not stated): the IC50 in test [1] was above 500 µM; in test [2], above 500 µM; in test [3], 18 µM; in test [4] it was 46 µM.

`CCc1ccccc1NC(=O)C1C(C(=O)O)[C@@H]2CC[C@H]1O2` (some centres not stated): the IC50 in test [1] is 360 µM; in test [2] it was 400 µM; in test [3], 24 µM; in test [4], 51 µM.

As for `O=C(O)C1C(C(=O)Nc2ccc3ccccc3c2)[C@H]2CC[C@@H]1O2` (some centres not stated), the IC50 worked out at 280 µM in test [1], 257 µM in test [2], 15 µM in test [3] and 14 µM in test [4].

Take `CC(CO)N1C(=O)C2C(C1=O)[C@H]1CC[C@@H]2O1` (some centres not stated): the IC50 in test [1] and in test [2] was above 500 µM in each case.

As to `CC(C)(C)c1ccc(NC(=O)C2C(C(=O)O)[C@@H]3CC[C@H]2O3)cc1` (some centres not stated), the 50% inhibitory concentration (IC50) is 405 µM in test [1], above 500 µM in test [2], 11 µM in test [3] and 10 µM in test [4].

Take `O=C1C2C(C(=O)N1CCN1CCOCC1)[C@H]1CC[C@@H]2O1` (some centres not stated): the IC50 in test [1] and in test [2] was above 500 µM in each case.

For the molecule `O=C(O)C1C(C(=O)Nc2ccccc2)[C@H]2CC[C@@H]1O2` (some centres not stated), the IC50 in test [1] is 300 µM; in test [2], 363 µM; in test [3], 7.7 µM; in test [4] it was 24 µM.

Turning to `O=C1C2C(C(=O)N1N1CCOCC1)[C@H]1CC[C@@H]2O1` (some centres not stated), the IC50 in test [1] and in test [2] was above 500 µM throughout.

Turning to `O=C(O)C1C(C(=O)Nc2cccc(CO)c2)[C@H]2CC[C@@H]1O2` (some centres not stated), the IC50 in test [1] is 440 µM; in test [2], 390 µM; in test [3], 7 µM; in test [4] it was 15 µM.

For the molecule `O=C(O)C1C(C(=O)NCCCc2ccccc2)[C@H]2CC[C@@H]1O2` (some centres not stated), the IC50 in test [1] is 383 µM; in test [2], 230 µM; in test [3], 25 µM; in test [4], 25 µM.

For the molecule `COc1ccc(NC(=O)C2C(C(=O)O)[C@@H]3CC[C@H]2O3)cc1` (some centres not stated), the IC50 in test [1] was 500 µM; in test [2], above 500 µM; in test [3] it was 16 µM; in test [4], 16 µM.

As to `O=C(O)C1C(C(=O)NCCc2ccccc2)[C@H]2CC[C@@H]1O2` (some centres not stated), the IC50 was determined as 243 µM in test [1], 300 µM in test [2], 29 µM in test [3] and 33 µM in test [4].

For `CC(C)(CO)N1C(=O)C2C(C1=O)[C@H]1CC[C@@H]2O1` (some centres not stated), the half-maximal inhibitory concentration (IC50) in test [1] and in test [2] was above 500 µM in each case.

Consider `O=C(O)C1C(C(=O)NCCN2CCOCC2)[C@H]2CC[C@@H]1O2` (some centres not stated), for which the IC50 is above 500 µM in test [1], above 500 µM in test [2], 43 µM in test [3] and 30 µM in test [4].

With `O=C(O)C1C(C(=O)NCc2ccc(C(F)(F)F)cc2)[C@H]2CC[C@@H]1O2` (some centres not stated), the IC50 in test [1] came out at 248 µM; in test [2], 433 µM; in test [3], 20 µM; in test [4], 16 µM.

Take `CC(C)C[C@@H](C(=O)O)N1C(=O)C2C(C1=O)[C@H]1CC[C@@H]2O1` (some centres not stated): the IC50 in test [1] and in test [2] was above 500 µM throughout.

As for `NCCCN1C(=O)C2C(C1=O)[C@H]1CC[C@@H]2O1` (some centres not stated), the IC50 in test [1] and in test [2] was above 500 µM in each case.

In the case of `O=C(O)C1C(C(=O)Nc2ccc(O)cc2)[C@H]2CC[C@@H]1O2` (some centres not stated), the IC50 was determined as 265 µM in test [1], 333 µM in test [2], 7.7 µM in test [3] and 28 µM in test [4].

With `CCN1C(=O)C2C(C1=O)[C@H]1CC[C@@H]2O1` (some centres not stated), the IC50 in test [1] and in test [2] was above 500 µM each time.

As to `CCCCN1C(=O)C2C(C1=O)[C@H]1CC[C@@H]2O1` (some centres not stated), the IC50 is 8.9 µM in test [1] and 12.5 µM in test [2].

Consider `CCCCNC(=O)C1C(C(=O)O)[C@@H]2CC[C@H]1O2` (some centres not stated), for which the IC50 is above 500 µM in test [1], above 500 µM in test [2], 24 µM in test [3] and 70 µM in test [4].

Take `C=Cc1ccc(NC(=O)C2C(C(=O)O)[C@@H]3CC[C@H]2O3)cc1` (some centres not stated): the IC50 in test [1] was above 500 µM; in test [2], 400 µM; in test [3] it was 11 µM; in test [4] it was 23 µM.

Turning to `CCCCCCN1C(=O)C2C(C1=O)[C@H]1CC[C@@H]2O1` (some centres not stated), the results for the IC50 in test [1] and in test [2] were 175 µM and 90 µM, respectively.

As for `CSc1ccc(NC(=O)C2C(C(=O)O)[C@@H]3CC[C@H]2O3)cc1` (some centres not stated), the IC50 in test [1] was above 500 µM; in test [2] it was above 500 µM; in test [3], 14 µM; in test [4] it was 10 µM.

`O=C1C2C(C(=O)N1CCCCCCO)[C@H]1CC[C@@H]2O1` (some centres not stated): the IC50 in test [1] and in test [2] was above 500 µM throughout.

Consider `CC(C)(C)c1cc(NC(=O)C2C(C(=O)O)[C@@H]3CC[C@H]2O3)cc(C(C)(C)C)c1` (some centres not stated), for which the IC50 in test [1] stood at 59.3 µM; in test [2], 176 µM; in test [3], 8.2 µM; in test [4], 8.2 µM.

Consider `COc1ccc(CN2C(=O)C3C(C2=O)[C@H]2CC[C@@H]3O2)cc1` (some centres not stated), for which the IC50 in test [1] is 24 µM; in test [2] it was 25 µM.

Turning to `CCCN1C(=O)C2C(C1=O)[C@H]1CC[C@@H]2O1` (some centres not stated), the IC50 in test [1] and in test [2] was above 500 µM each time.

As to `CCCCCCNC(=O)C1C(C(=O)O)[C@@H]2CC[C@H]1O2` (some centres not stated), the IC50 in test [1] was above 500 µM; in test [2], 390 µM; in test [3], 13 µM; in test [4], 35 µM.

Consider `O=C(O)CCCCCNC(=O)C1C(C(=O)O)[C@@H]2CC[C@H]1O2` (some centres not stated), for which the IC50 is 260 µM in test [1], above 500 µM in test [2], 3.5 µM in test [3] and 14 µM in test [4].
